Here are results for three molecules from patent US20260022112A1, “NOVEL CO-CRYSTAL OF ENAVOGLIFLOZIN” (DAEWOONG PHARMACEUTICAL CO., LTD., priority 2022, published 2026).

The structures appear in SMILES notation. In brackets after ≈: the same amount, converted by molar mass. Read-outs that look alike come from different tables or passages of the source.

For series [1] the following is noted: crystalline form of Patent Document 2; cited from earlier work.
The nature of series [2]: Solubility in artificial gastric fluid (FaSSGF). Type of series: physicochemical. The following applies: fassgf or other biorelevant, thermodynamic from solid.
The nature of series [3]: Solubility in artificial intestinal fluid (FaSSIF). Type of series: physicochemical. The settings on record: thermodynamic from solid.
Series [4] can be described thus: Stress stability evaluation, 60° C., 4 weeks, HPLC. The class given is physicochemical.
Series [5] can be described thus: Pharmacokinetic evaluation in beagle dogs. The class given is in vivo. The following applies: plasma, 1 mg/kg. How it is done: A test was conducted to confirm whether the pharmacokinetic profiles of enavogliflozin/proline co-crystals were improved in beagle dogs. Each of the crystalline form A of enavogliflozin and the proline co-crystal was orally administered at a dose of 1 mg/kg to male beagle dogs by setting the crystalline form A of enavogliflozin as a control and the proline co-crystal as a comparative group, and blood collection was conducted before administration (0 hour), and for 0.083, 0.25, 0.5, 0.75, 1, 1.5, 2, 4, 6, 8, 12, and 24 hours (a total of 13 times). Blood drug concentrations were analyzed by LC-MS/MS using plasma separated from the collected samples, and pharmacokinetic parameters such as the maximum observed plasma concentration (Cmax), an area under the plasma concentration-time curve (AUClast and AUCinf), a time-to-maximum observed plasma concentration (Tmax), and a half-life (T1/2) were calculated and interpreted using the WinNonlin 5.0.1 program.

As for `OC[C@H]1O[C@@H](c2cc(Cc3ccc(C4CC4)cc3)c(Cl)c3c2CCO3)[C@H](O)[C@@H](O)[C@@H]1O` [enavogliflozin], the “Solubility (water solubility)” value in series [1] is 250 µg/mL (≈ 559 µM).
Regarding `OC[C@H]1O[C@@H](c2cc(Cc3ccc(C4CC4)cc3)c(Cl)c3c2CCO3)[C@H](O)[C@@H](O)[C@@H]1O` [Crystalline form A of enavogliflozin, enavogliflozin], the solubility (in general, the concentration that dissolves in the medium under given conditions) at 30 min is 310 µg/mL (≈ 694 µM) in series [2] (30 minutes) and 690 µg/mL (≈ 1540 µM) in series [3] (30 minutes). Moreover, the solubility at 1 h in series [2] (1 hour) was 340 µg/mL (≈ 761 µM); in series [3] (1 hour), 940 µg/mL (≈ 2100 µM). Moreover, the figures for the solubility at 2 h in series [2] (2 hours) and in series [3] (2 hours) were 350 µg/mL (≈ 783 µM) and 1000 µg/mL (≈ 2240 µM), respectively. The values for the solubility at 4 h in series [2] (4 hours) and in series [3] (4 hours) were 350 µg/mL (≈ 783 µM) and 920 µg/mL (≈ 2060 µM), respectively. In series [3] (Initial), this molecule yielded a solubility at 0 h of 10000 µg/mL (≈ 22400 µM). The “Purity (HPLC) in stress stability evaluation” value (shortened to “Purity (HPLC)”) in series [4] (2 weeks, listed as Crystalline form of enavogliflozin) is given as 98.8%; in series [4] (4 weeks, listed as Crystalline form of enavogliflozin) it was 99.1%; in series [4] (Initial, listed as Crystalline form of enavogliflozin), 99.1%. The AUC(0-inf) (as a rule, the area under the concentration-time curve extrapolated to infinity) in series [5] (male, beagle, dog, po) worked out at 4640 ng·h/mL. In addition, the AUC(0-t) (commonly exposure summed from dosing to a finite time, without extrapolation to infinity) in series [5] (male, beagle, dog, po) stood at 4340 ng·h/mL. In series [5] (male, beagle, dog, po), the half-life (as a rule, the time in which the quantity being followed falls by half) was 5.32 h. Also, in series [5] (male, beagle, dog, po, read-out: Cmax), the Cmax (commonly the peak of the concentration-time curve) stood at 482 ng/mL. The Tmax (usually the time at which the peak concentration occurs) in series [5] (male, beagle, dog, po, read-out: Tmax) turned out to be 4 h.
`OC[C@H]1O[C@@H](c2cc(Cc3ccc(C4CC4)cc3)c(Cl)c3c2CCO3)[C@H](O)[C@@H](O)[C@@H]1O` [Enavogliflozin/proline co-crystal]: in series [4] (2 weeks), the “Purity (HPLC)” value was 99.9%. In series [4] (4 weeks), the “Purity (HPLC)” value was found to be 99.8% and the “Thermal stability compared with crystalline form of enavogliflozin” value is “equivalent to that of the crystalline form of enavogliflozin”. Besides, the “Purity (HPLC)” value in series [4] (Initial) amounted to 99.9%. In series [5] (male beagle dogs, oral), the AUCinf amounted to 5341.58 ng·h/mL, the AUClast came to 4428.20 ng·h/mL, the maximum concentration (Cmax) was determined as 482.60 ng/mL and the T1/2 came to 6.10 h. For the same molecule, the Tmax in series [5] (male beagle dogs, oral) was 5.20 h.
